Results published in patent US20250353873A1, “COMPOUNDS AND METHODS FOR MODULATING APOE EXPRESSION” (Ionis Pharmaceuticals, Inc., priority 2024, published 2025).
Strand notation (5' to 3'): a small letter for the sugar, then the base; units joined by * are phosphorothioate-linked, units joined directly phosphodiester-linked; [ ] holds rarer units or linkages, { } end groups; capitals alone tell only the bases. [ms] = mesyl phosphoramidate linkage; e = 2'-O-(2-methoxyethyl) (MOE); k = constrained ethyl (cEt); [5mC] = 5-methylcytosine; d = 2'-deoxy (DNA)

What was measured:
[1] = tested on: human APOE RNA; test: Activity in APOE C57BL/6NTac-Apoeem7250 knock-in mice, single ICV bolus, 8 weeks (Example 11); assay type: in vivo; conditions: single ICV bolus 300 μg, 8 weeks post treatment, normalized to mouse Ppia
Method in brief: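 Cortical and spinal cord human APOE RNA quantified by RT-qPCR 8 weeks after a single 300 μg ICV dose in knock-in mice, Ppia-normalized. Values are percent of levels in PBS-treated animals.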

[2] = tested on: human APOE RNA; test: Activity in APOE C57BL/6NTac-Apoeem7250 knock-in mice, single ICV bolus, 16 weeks (Example 12); assay type: in vivo; conditions: single ICV bolus 300 μg, 16 weeks post treatment, normalized to mouse Ppia
Method in brief: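 A single 300 μg intracerebroventricular dose was given, with PBS-treated mice as reference; cortical and spinal cord tissue was taken 16 weeks later. RT-qPCR quantified human APOE RNA, Ppia-normalized, expressed relative to PBS animals (% control).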

[3] = tested on: human APOE RNA; test: Dose-dependent inhibition of human APOE RNA in differentiated SH-SY5Y cells, free uptake, 5 days (Example 5); assay type: cell-based; conditions: 5 days (Table 14)
Description: Modified oligonucleotides selected from the examples above were tested at various doses in differentiated SH-SY5Y cells. The modified oligonucleotides were tested in a series of experiments that had the same culture conditions.
Differentiated SH-SY5Y cells plated at a density of 10,000 cells per well were treated by free uptake with various concentrations of modified oligonucleotide as specified in the tables below. […] APOE RNA levels were measured using the human primer probe set RTS3073 (described herein above). APOE RNA levels were normalized to human PPIA. Human PPIA was amplified using human primer probe set mk_cycloA_2nd (described herein above). Results are presented as percent APOE RNA, relative to the amount of APOE RNA in untreated control cells (% UTC). The half maximal inhibitory concentration (IC50) of each modified oligonucleotide was calculated in GraphPad Prism 10 (GraphPad Software, San Diego, CA) and is also presented in the tables below.

[4] = tested on: human APOE RNA; test: Activity in APOE C57BL/6NTac-Apoeem7250 knock-in mice, single ICV bolus, 4 weeks (Example 10); assay type: in vivo; conditions: single ICV bolus 300 μg, 4 weeks post treatment, normalized to mouse Ppia
Method in brief: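 Human APOE RNA, quantified by real-time RT-PCR with RTS3073 and normalized to mouse Ppia, was read in cortical brain and spinal cord 4 weeks post dosing. Dosing was a single ICV bolus of 300 μg per knock-in mouse; values are % of PBS-treated animals.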

[5] = tested on: human APOE RNA; test: Activity in APOE C57BL/6NTac-Apoeem7250 knock-in mice, single ICV bolus, 20 weeks (Example 13); assay type: in vivo; conditions: single ICV bolus 300 μg, 20 weeks post treatment, normalized to mouse Ppia
Method in brief: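 Cortical and spinal cord RNA was assayed by real-time RT-PCR for human APOE, normalized to mouse Ppia and reported as percent of PBS controls. Tissue was taken twenty weeks after one 300 μg intracerebroventricular bolus in APOE knock-in mice, 4 per group.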

[6] = tested on: human APOE RNA; test: Dose-dependent inhibition of human APOE RNA in HepG2 cells, electroporation, 50,000 cells per well, RT-PCR normalized to GAPDH (Example 4, Tables 8-10); assay type: cell-based
Method in brief: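 Readout is percent APOE RNA versus untreated controls, measured by RT-PCR (primer probe set RTS3073) and normalized to human GAPDH. Modified oligonucleotides were delivered by electroporation at varying doses into HepG2 cells plated at 50,000 per well.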

Substance | APOE RNA (% control) Cortex [1] [% control] | APOE RNA (% control) Spinal Cord [1] [% control] | APOE RNA (% UTC) ([3]; 5 nM) | APOE RNA (% UTC) ([3]; 13 nM) | APOE RNA (% UTC) ([3]; 33 nM) | APOE RNA (% UTC) ([3]; 82 nM) | APOE RNA (% UTC) ([3]; 205 nM) | APOE RNA (% UTC) ([3]; 512 nM) | APOE RNA (% UTC) ([3]; 1,280 nM) | APOE RNA (% UTC) ([3]; 3,200 nM) | APOE RNA (% UTC) ([3]; 8,000 nM) | APOE RNA (% UTC) ([3]; 20,000 nM) | IC50 [3] [nM] | APOE RNA (% control) Cortex [4] [% control] | APOE RNA (% control) Spinal Cord [4] [% control] | other results
1778131: modified oligonucleotide complementary to human APOE RNA (eA*e[5mC]eTeTeGkG*dT*dG[ms]dA[ms]dA*dT*d[5mC]*dT*dT*dT*dA[ms]kTkT*eA*eA; antisense) [compound 1778131] | 29 | 24 | 69 | 103 | 89 | 69 | 64 | 31 | 45 | 55 | 25 | 12 | 690 | 29 | 49 | APOE RNA (% control) Cortex ([2]; cortex): 34 % control; APOE RNA (% control) Spinal Cord ([2]; spinal cord): 17 % control; APOE RNA (% control) Cortex ([5]; cortex): 65 % control; APOE RNA (% control) Spinal Cord ([5]; spinal cord): 43 % control; APOE RNA (% UTC) 5 nM ([6]; HepG2 cells, electroporation, 24-hour treatment, 5 nM, Table 8): 104 % UTC; APOE RNA (% UTC) 13 nM ([6]; HepG2 cells, electroporation, 24-hour treatment, 13 nM, Table 8): 117 % UTC; APOE RNA (% UTC) 33 nM ([6]; HepG2 cells, electroporation, 24-hour treatment, 33 nM, Table 8): 101 % UTC; APOE RNA (% UTC) 82 nM ([6]; HepG2 cells, electroporation, 24-hour treatment, 82 nM, Table 8): 78 % UTC; APOE RNA (% UTC) 205 nM ([6]; HepG2 cells, electroporation, 24-hour treatment, 205 nM, Table 8): 71 % UTC; APOE RNA (% UTC) 512 nM ([6]; HepG2 cells, electroporation, 24-hour treatment, 512 nM, Table 8): 50 % UTC; APOE RNA (% UTC) 1,280 nM ([6]; HepG2 cells, electroporation, 24-hour treatment, 1,280 nM, Table 8): 35 % UTC; APOE RNA (% UTC) 3,200 nM ([6]; HepG2 cells, electroporation, 24-hour treatment, 3,200 nM, Table 8): 28 % UTC; APOE RNA (% UTC) 8,000 nM ([6]; HepG2 cells, electroporation, 24-hour treatment, 8,000 nM, Table 8): 7 % UTC; APOE RNA (% UTC) 20,000 nM ([6]; HepG2 cells, electroporation, 24-hour treatment, 20,000 nM, Table 8): 5 % UTC; IC50 ([6]; reduction of human APOE RNA, HepG2 cells, electroporation, 24-hour treatment, Table 8): 630 nM
1746809 (k[5mC]*dT[ms]kT*dG[ms]kG*dT[ms]dG[ms]dA[ms]dA[ms]dT*d[5mC]*dT*dT*dT*dA[ms]dT*dT[ms]kA*kA*kA; antisense) [Compound 1746809] | 47 | 44 | 93 | 118 | 80 | 68 | 77 | 57 | 31 | 34 | 12 | 8 | 660 | 36 | 59 | APOE RNA (% UTC) ([6]; 5 nM, HepG2, electroporation, 24-hour treatment): 91 % UTC; APOE RNA (% UTC) ([6]; 33 nM, HepG2, electroporation, 24-hour treatment): 98 % UTC; APOE RNA (% UTC) ([6]; 82 nM, HepG2, electroporation, 24-hour treatment): 74 % UTC; APOE RNA (% UTC) ([6]; 205 nM, HepG2, electroporation, 24-hour treatment): 81 % UTC; APOE RNA (% UTC) ([6]; 512 nM, HepG2, electroporation, 24-hour treatment): 54 % UTC; APOE RNA (% UTC) ([6]; 1,280 nM, HepG2, electroporation, 24-hour treatment): 35 % UTC; APOE RNA (% UTC) ([6]; 3,200 nM, HepG2, electroporation, 24-hour treatment): 33 % UTC; APOE RNA (% UTC) ([6]; 8,000 nM, HepG2, electroporation, 24-hour treatment): 23 % UTC; APOE RNA (% UTC) ([6]; 20,000 nM, HepG2, electroporation, 24-hour treatment): 14 % UTC; IC50 ([6]; HepG2, electroporation, 24-hour treatment): 840 nM
